Data from patent US20260256792A1, “TREATMENT OF CHRONIC SPONTANEOUS URTICARIA BY ADMINISTERING (R)-2-[3-[4-AMINO-3-(2-FLUORO-4-PHENOXY-PHENYL)PYRAZOLO[3,4-D]PYRIMIDIN-1-YL]PIPERIDINE-1-CARBONYL]-4-METHYL-4-[4-(OXETAN-3-YL)PIPERAZIN-1-YL]PENT-2-ENENITRILE” (priority 2023, published 2026).

System: moderate-to-severe chronic spontaneous urticaria (CSU)
Assay: Phase 2 CSU study: urticaria activity score over 7 days (UAS7)
Type: in vivo, human
Settings: Omalizumab-naïve
From the text: The study comprises a 12 week, randomized, double-blind, placebo-controlled, multi-center, dose-ranging efficacy and safety phase, followed by a 40 week open label extension (OLE) phase (see FIG. 1). The study consists of three phases and an optional OLE phase. […] Clinically, CSU is characterized by the spontaneous and recurrent appearance of pruritic hives. The proposed primary endpoints were the UAS7 at Week 12 in EU and EU reference countries and the ISS7 in the US. Regardless of where a participant was from, all assessments were the same. The UAS7 score is a composite score containing both the HSS7 and the ISS7. This allowed a global assessment of the two key components of urticaria: hives and itch. […] The UAS is a validated PRO measure. […] The daily UAS scores range from 0 to 6 point/day. […] Patients were to complete the UAS using the e-diary. […] The following secondary endpoints were to be analyzed using the same approach as for the primary endpoint: • Change from baseline in UAS7 at Week 4 • Change from baseline in UAS7 at Week 12 (for US and US reference countries) • Change from baseline in ISS7 at Week 12 (except US and US reference countries) • Change from baseline in HSS7 at Week 12 The following responder secondary endpoints were to be analyzed using the Cochran-Mantel-Haenszel test adjusted by region: • Proportion of participants with UAS7<6 at Week 12 • Proportion of participants with UAS7=0 at Week 12 Participants who received selected prohibited medications and/or rescue medications were to be considered as non-responders for time points after the medication usage. For other participants, all available data including those collected during the off-treatment period were to be used to determine the responder/non-responder status. Missing data were to be considered as non-responders.

## CC(C)(C=C(C#N)C(=O)N1CCC[C@@H](n2nc(-c3ccc(Oc4ccccc4)cc3F)c3c(N)ncnc32)C1)N1CCN(C2COC2)CC1 [rilzabrutinib, (R)-2-[3-[4-amino-3-(2-fluoro-4-phenoxy-phenyl)pyrazolo[3,4-d]pyrimidin-1-yl]piperidine-1-carbonyl]-4-methyl-4-[4-(oxetan-3-yl)piperazin-1-yl]pent-2-enenitrile]
400 mg BID, Week 6
  RRD (%) for rilzabrutinib vs. placebo, UAS7 = 0: 7.6 %
  RRD (%) for rilzabrutinib vs. placebo, UAS7 ≤6: 8.8 %
  Responder n (%), UAS7 = 0: 4 (11.4) n (%)
  Responder n (%), UAS7 ≤6: 9 (25.7) n (%)
400 mg BID, Week 7
  Imputed non-responder n (%), UAS7 = 0: 2 (5.7) n (%)
  Imputed non-responder n (%), UAS7 ≤6: 2 (5.7) n (%)
  Non-responder n (%), UAS7 = 0: 31 (88.6) n (%)
  Non-responder n (%), UAS7 ≤6: 26 (74.3) n (%)
  OR for rilzabrutinib vs. placebo, UAS7 = 0: 4.254
  OR for rilzabrutinib vs. placebo, UAS7 ≤6: 2.622
  RRD (%) for rilzabrutinib vs. placebo, UAS7 = 0: 8.1 %
  RRD (%) for rilzabrutinib vs. placebo, UAS7 ≤6: 13.6 %
  Responder n (%), UAS7 = 0: 4 (11.4) n (%)
  Responder n (%), UAS7 ≤6: 9 (25.7) n (%)
400 mg BID, Week 8
  Imputed non-responder n (%), UAS7 = 0: 3 (8.6) n (%)
  Imputed non-responder n (%), UAS7 ≤6: 3 (8.6) n (%)
  Non-responder n (%), UAS7 = 0: 29 (82.9) n (%)
  Non-responder n (%), UAS7 ≤6: 22 (62.9) n (%)
  OR for rilzabrutinib vs. placebo, UAS7 = 0: 3.154
  OR for rilzabrutinib vs. placebo, UAS7 ≤6: 2.745
  RRD (%) for rilzabrutinib vs. placebo, UAS7 = 0: 10.7 %
  RRD (%) for rilzabrutinib vs. placebo, UAS7 ≤6: 18.5 %
  Responder n (%), UAS7 = 0: 6 (17.1) n (%)
  Responder n (%), UAS7 ≤6: 13 (37.1) n (%)
400 mg BID, Week 9
  Imputed non-responder n (%), UAS7 = 0: 7 (20.0) n (%)
  Imputed non-responder n (%), UAS7 ≤6: 7 (20.0) n (%)
  Non-responder n (%), UAS7 = 0: 29 (82.9) n (%)
  Non-responder n (%), UAS7 ≤6: 25 (71.4) n (%)
  OR for rilzabrutinib vs. placebo, UAS7 = 0: 2.249
  OR for rilzabrutinib vs. placebo, UAS7 ≤6: 2.797
  RRD (%) for rilzabrutinib vs. placebo, UAS7 = 0: 8.4 %
  RRD (%) for rilzabrutinib vs. placebo, UAS7 ≤6: 15.6 %
  Responder n (%), UAS7 = 0: 6 (17.1) n (%)
  Responder n (%), UAS7 ≤6: 10 (28.6) n (%)
400 mg BID, Week 10
  Imputed non-responder n (%), UAS7 = 0: 8 (22.9) n (%)
  Imputed non-responder n (%), UAS7 ≤6: 8 (22.9) n (%)
  Non-responder n (%), UAS7 = 0: 27 (77.1) n (%)
  Non-responder n (%), UAS7 ≤6: 26 (74.3) n (%)
  OR for rilzabrutinib vs. placebo, UAS7 = 0: 2.159
  OR for rilzabrutinib vs. placebo, UAS7 ≤6: 1.923
  RRD (%) for rilzabrutinib vs. placebo, UAS7 = 0: 10.6 %
  RRD (%) for rilzabrutinib vs. placebo, UAS7 ≤6: 9.9 %
  Responder n (%), UAS7 = 0: 8 (22.9) n (%)
  Responder n (%), UAS7 ≤6: 9 (25.7) n (%)
400 mg BID, Week 11
  Imputed non-responder n (%), UAS7 = 0: 7 (20.0) n (%)
  Imputed non-responder n (%), UAS7 ≤6: 7 (20.0) n (%)
  Non-responder n (%), UAS7 = 0: 30 (85.7) n (%)
  Non-responder n (%), UAS7 ≤6: 25 (71.4) n (%)
  OR for rilzabrutinib vs. placebo, UAS7 = 0: 2.551
  OR for rilzabrutinib vs. placebo, UAS7 ≤6: 1.853
  RRD (%) for rilzabrutinib vs. placebo, UAS7 = 0: 7.4 %
  Responder n (%), UAS7 = 0: 5 (14.3) n (%)
  Responder n (%), UAS7 ≤6: 10 (28.6) n (%)
400 mg BID, Week 12
  Imputed non-responder n (%), UAS7 = 0: 11 (31.4) n (%)
  Imputed non-responder n (%), UAS7 ≤6: 11 (31.4) n (%)
  Non-responder n (%), UAS7 = 0: 30 (85.7) n (%)
  Non-responder n (%), UAS7 ≤6: 28 (80.0) n (%)
  OR for rilzabrutinib vs. placebo, UAS7 = 0: 1.258
  OR for rilzabrutinib vs. placebo, UAS7 ≤6: 1.904
  RRD (%) for rilzabrutinib vs. placebo, UAS7 = 0: 2.6 %
  RRD (%) for rilzabrutinib vs. placebo, UAS7 ≤6: 7.9 %
  Responder n (%), UAS7 = 0: 5 (14.3) n (%)
  Responder n (%), UAS7 ≤6: 7 (20.0) n (%)
400 mg QPM, Week 1
  Imputed non-responder n (%), UAS7 = 0: 0 n (%)
  Imputed non-responder n (%), UAS7 ≤6: 0 n (%)
  Non-responder n (%), UAS7 = 0: 37 (100) n (%)
